pKd: −log10 of the molar value. Activity calls are given as the source filed them. Rule as the data show it, for most assays here: actives have a measured Kd and inactives only a lower limit.
Legend:
[1] = molecular target: T1, Acyl-CoA dehydrogenase family member 11 (Homo sapiens, UniProt Q709F0)
T1 sequence (Q709F0 whole entry): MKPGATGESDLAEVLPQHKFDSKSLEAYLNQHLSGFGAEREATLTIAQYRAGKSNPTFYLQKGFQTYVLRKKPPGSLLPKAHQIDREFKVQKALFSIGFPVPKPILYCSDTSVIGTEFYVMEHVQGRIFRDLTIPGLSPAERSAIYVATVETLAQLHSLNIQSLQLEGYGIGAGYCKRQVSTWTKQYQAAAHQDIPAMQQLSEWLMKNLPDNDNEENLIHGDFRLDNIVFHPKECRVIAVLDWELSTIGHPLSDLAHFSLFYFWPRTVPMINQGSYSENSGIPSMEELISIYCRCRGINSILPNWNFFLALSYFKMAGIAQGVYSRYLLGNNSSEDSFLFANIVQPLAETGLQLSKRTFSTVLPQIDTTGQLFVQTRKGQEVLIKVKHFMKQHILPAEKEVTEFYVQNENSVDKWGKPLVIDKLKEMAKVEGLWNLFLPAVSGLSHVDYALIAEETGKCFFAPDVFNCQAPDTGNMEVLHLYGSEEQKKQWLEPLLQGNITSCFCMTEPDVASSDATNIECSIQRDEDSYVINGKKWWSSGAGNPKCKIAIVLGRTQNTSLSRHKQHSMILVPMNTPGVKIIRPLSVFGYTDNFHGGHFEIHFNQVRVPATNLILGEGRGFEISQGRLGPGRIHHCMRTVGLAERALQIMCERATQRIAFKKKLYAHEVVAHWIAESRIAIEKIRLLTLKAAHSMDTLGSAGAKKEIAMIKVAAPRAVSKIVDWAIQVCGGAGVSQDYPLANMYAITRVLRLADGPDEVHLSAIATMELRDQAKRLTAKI

[2] = molecular target: Casein kinase I isoform alpha (Homo sapiens, UniProt P48729)
Chain of Casein kinase I isoform alpha (P48729 whole entry, canonical isoform): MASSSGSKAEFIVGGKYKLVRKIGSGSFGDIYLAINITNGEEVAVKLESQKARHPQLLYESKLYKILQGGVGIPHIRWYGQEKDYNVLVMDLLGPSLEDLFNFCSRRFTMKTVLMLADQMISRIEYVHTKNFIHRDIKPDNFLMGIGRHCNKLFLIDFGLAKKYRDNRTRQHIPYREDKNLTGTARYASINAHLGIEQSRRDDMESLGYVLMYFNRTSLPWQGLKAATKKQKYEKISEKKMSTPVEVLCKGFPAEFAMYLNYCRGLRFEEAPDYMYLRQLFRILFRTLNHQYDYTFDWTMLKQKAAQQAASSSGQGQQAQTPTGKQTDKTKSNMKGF

[3] = molecular target: Cyclin-dependent kinase 2 (Homo sapiens, UniProt P24941)
[4] = molecular target: T2, Serine/threonine-protein kinase STK11 (Homo sapiens, UniProt Q15831)
T2 sequence (Q15831 whole entry): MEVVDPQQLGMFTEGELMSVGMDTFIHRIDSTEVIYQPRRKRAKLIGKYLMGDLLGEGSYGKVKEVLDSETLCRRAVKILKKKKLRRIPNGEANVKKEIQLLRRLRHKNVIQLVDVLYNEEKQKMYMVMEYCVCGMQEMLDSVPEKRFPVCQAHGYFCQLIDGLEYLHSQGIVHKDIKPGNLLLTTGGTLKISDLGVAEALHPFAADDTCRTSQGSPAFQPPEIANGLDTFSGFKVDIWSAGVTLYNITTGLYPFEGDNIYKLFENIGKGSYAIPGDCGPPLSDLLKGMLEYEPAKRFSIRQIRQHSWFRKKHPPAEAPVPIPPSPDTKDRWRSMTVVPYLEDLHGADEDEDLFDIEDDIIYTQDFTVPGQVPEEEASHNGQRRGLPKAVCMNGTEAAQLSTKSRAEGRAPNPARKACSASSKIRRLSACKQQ

[5] = molecular target: Serine/threonine-protein kinase N2 (Homo sapiens, UniProt Q16513)
Chain of Serine/threonine-protein kinase N2 (Q16513 whole entry): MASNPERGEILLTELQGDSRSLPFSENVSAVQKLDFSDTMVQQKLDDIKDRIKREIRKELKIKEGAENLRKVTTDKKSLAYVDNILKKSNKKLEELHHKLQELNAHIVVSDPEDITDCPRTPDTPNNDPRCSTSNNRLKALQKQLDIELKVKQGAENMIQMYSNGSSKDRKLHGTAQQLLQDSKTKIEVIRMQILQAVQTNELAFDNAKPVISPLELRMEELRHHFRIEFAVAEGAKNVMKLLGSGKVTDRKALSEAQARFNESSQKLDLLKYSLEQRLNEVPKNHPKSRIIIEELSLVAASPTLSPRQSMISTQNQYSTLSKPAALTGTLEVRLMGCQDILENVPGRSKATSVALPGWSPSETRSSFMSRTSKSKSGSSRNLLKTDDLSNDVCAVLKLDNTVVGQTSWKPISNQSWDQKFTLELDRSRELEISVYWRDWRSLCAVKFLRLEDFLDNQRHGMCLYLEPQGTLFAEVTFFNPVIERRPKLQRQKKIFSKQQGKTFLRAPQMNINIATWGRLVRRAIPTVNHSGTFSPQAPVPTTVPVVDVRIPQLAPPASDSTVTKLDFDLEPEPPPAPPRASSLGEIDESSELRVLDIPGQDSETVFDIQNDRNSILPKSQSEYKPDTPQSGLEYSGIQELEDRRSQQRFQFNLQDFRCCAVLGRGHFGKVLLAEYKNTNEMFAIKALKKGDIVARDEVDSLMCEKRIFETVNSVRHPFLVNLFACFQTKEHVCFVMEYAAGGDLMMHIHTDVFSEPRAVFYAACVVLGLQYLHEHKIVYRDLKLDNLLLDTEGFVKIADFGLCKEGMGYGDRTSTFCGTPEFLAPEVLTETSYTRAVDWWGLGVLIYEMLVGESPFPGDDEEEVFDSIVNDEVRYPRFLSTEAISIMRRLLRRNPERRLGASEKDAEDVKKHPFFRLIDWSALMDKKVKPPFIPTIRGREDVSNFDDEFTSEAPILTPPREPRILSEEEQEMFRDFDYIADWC

[6] = molecular target: Cyclin-dependent kinase 3 (Homo sapiens, UniProt Q00526)
Chain of Cyclin-dependent kinase 3 (Q00526 whole entry): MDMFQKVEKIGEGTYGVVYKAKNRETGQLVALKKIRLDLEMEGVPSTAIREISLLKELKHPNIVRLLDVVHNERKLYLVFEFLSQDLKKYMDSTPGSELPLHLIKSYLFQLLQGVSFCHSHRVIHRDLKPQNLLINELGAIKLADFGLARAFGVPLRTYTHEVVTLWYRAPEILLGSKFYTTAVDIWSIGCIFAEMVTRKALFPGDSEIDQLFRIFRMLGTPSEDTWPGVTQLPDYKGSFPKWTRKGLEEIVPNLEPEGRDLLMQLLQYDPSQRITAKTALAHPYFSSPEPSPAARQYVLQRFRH

[7] = molecular target: TGF-beta receptor type-2 (Homo sapiens, UniProt P37173)
Chain of TGF-beta receptor type-2 (P37173 whole entry): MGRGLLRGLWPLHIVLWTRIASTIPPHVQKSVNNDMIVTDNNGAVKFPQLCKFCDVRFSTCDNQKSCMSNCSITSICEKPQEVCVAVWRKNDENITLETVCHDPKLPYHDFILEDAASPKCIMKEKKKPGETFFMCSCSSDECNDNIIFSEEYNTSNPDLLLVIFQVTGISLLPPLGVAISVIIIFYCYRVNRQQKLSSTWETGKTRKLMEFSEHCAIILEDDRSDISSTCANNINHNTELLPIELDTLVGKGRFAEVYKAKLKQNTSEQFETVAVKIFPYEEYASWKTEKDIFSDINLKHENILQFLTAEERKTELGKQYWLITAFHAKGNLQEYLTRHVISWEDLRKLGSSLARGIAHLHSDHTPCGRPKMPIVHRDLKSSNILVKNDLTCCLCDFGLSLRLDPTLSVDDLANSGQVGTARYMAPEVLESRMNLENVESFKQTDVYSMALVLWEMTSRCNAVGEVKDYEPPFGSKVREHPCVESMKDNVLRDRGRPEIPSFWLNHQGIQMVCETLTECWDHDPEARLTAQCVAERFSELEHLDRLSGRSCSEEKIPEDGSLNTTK

[8] = molecular target: T3, Serine/threonine-protein kinase Chk1 (Homo sapiens, UniProt O14757)
T3 sequence (O14757 whole entry): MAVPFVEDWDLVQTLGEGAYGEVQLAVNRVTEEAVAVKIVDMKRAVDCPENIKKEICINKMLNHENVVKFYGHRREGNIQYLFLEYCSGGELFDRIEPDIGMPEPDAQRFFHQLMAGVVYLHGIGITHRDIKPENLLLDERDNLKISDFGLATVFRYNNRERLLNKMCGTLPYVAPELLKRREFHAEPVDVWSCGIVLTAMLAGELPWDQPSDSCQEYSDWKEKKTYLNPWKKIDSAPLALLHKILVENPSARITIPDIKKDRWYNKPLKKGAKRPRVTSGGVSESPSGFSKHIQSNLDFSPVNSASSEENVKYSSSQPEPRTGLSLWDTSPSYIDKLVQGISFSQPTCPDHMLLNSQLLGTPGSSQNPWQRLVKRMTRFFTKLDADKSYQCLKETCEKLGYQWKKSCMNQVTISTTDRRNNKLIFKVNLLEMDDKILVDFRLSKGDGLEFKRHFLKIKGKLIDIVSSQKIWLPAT

[9] = molecular target: Ras-related protein Rab-6A (Homo sapiens, UniProt P20340)
Chain of Ras-related protein Rab-6A (P20340 whole entry): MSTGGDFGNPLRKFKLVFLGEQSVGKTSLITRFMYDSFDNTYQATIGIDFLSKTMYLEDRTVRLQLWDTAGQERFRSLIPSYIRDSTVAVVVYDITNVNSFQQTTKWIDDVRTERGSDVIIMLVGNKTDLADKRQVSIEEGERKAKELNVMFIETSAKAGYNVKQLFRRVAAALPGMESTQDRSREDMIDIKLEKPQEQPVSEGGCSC

[10] = molecular target: U5 small nuclear ribonucleoprotein 200 kDa helicase (Homo sapiens, UniProt O75643)
[11] = molecular target: Ribosomal protein S6 kinase alpha-3 (Homo sapiens, UniProt P51812)
Chain of Ribosomal protein S6 kinase alpha-3 (P51812 whole entry): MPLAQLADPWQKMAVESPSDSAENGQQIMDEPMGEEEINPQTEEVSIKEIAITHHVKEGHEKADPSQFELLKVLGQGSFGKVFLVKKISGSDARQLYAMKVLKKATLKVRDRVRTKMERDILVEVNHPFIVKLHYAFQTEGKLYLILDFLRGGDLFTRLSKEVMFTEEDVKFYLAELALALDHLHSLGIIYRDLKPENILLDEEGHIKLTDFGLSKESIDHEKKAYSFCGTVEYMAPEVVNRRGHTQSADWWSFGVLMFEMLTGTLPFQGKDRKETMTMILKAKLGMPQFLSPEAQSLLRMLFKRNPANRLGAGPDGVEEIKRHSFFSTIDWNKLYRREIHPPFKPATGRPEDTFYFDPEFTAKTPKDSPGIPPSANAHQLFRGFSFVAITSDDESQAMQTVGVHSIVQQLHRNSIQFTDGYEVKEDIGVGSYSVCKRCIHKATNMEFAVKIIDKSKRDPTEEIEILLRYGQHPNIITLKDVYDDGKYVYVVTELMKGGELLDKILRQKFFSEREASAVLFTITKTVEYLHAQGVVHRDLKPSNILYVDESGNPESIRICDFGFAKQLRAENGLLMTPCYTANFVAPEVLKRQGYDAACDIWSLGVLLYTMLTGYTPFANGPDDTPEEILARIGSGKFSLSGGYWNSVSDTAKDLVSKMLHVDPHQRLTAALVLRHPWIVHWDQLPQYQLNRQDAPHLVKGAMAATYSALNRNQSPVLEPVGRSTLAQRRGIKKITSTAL

[12] = molecular target: Serine/threonine-protein kinase N1 (Homo sapiens, UniProt Q16512)
Chain of Serine/threonine-protein kinase N1 (Q16512 whole entry): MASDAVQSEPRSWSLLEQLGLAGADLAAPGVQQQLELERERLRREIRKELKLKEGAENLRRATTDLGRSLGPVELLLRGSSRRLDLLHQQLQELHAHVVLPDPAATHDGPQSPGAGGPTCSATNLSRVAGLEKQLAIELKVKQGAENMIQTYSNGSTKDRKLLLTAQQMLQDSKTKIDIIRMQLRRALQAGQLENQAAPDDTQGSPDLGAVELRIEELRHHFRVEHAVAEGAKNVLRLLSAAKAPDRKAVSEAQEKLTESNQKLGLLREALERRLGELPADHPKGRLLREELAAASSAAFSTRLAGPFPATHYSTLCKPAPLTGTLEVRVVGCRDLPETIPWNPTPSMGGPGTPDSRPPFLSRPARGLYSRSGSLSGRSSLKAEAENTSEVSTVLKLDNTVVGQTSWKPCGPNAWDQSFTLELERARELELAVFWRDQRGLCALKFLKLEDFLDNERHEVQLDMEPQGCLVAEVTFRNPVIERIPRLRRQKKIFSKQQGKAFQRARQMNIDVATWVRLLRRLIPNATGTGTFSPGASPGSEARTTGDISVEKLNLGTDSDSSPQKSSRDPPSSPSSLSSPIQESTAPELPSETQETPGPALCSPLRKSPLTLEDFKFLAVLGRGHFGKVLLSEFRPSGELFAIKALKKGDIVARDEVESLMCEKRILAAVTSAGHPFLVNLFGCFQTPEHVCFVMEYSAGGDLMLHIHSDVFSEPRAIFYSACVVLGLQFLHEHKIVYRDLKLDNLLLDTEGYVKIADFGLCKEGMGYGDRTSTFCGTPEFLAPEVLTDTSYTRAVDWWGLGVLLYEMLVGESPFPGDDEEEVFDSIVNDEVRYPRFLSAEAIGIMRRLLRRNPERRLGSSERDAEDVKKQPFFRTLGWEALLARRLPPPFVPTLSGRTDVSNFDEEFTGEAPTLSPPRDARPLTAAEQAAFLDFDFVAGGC

[13] = molecular target: Atypical kinase COQ8A, mitochondrial (Homo sapiens, UniProt Q8NI60)
[14] = molecular target: Serine/threonine-protein kinase PAK 4 (Homo sapiens, UniProt O96013)
Chain of Serine/threonine-protein kinase PAK 4 (O96013 whole entry): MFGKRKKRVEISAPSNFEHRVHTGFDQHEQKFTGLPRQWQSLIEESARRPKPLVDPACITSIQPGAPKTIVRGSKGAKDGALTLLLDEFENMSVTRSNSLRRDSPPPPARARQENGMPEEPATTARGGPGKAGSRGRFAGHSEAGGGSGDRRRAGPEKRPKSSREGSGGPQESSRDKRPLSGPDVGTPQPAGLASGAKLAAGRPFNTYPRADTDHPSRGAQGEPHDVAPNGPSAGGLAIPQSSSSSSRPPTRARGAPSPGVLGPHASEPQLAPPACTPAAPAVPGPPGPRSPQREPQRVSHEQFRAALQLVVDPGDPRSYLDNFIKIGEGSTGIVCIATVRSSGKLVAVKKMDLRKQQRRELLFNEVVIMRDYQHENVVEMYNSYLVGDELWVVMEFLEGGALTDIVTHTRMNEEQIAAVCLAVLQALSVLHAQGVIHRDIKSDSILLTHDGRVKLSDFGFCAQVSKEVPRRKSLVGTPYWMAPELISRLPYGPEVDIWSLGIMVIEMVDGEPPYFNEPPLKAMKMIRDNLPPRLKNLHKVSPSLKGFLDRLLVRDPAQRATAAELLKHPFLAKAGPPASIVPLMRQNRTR
Also: in the data inactive means no Kd found up to 30 µM.

Compound | Kd [1] | Kd [2] | Kd [3] | Kd [4] | Kd [5] | Kd [6] | Kd [7] | Kd [8] | Kd [9] | Kd [10] | Kd [11] | Kd [12] | Kd [13] | Kd [14] | pKd [4] | pKd [6]
O=C(Nc1ccc(OC(F)(F)F)cc1)c1sccc1NCc1ccnc2ccccc12 [OSI-930] | > 30 µM (inactive) | > 30 µM (inactive) | > 30 µM (inactive) | > 30 µM (inactive) | > 30 µM (inactive) | > 30 µM (inactive) | > 30 µM (inactive) | > 30 µM (inactive) | > 30 µM (inactive) | > 30 µM (inactive) | > 30 µM (inactive) | > 30 µM (inactive) | > 30 µM (inactive) | > 30 µM (inactive) | – | –
Cc1cc(Nc2nc(N[C@@H](C)c3ncc(F)cn3)ncc2Cl)n[nH]1 [AZD-1480] | > 30 µM (inactive) | > 30 µM (inactive) | > 30 µM (inactive) | – | > 30 µM (inactive) | – | > 30 µM (inactive) | > 30 µM (inactive) | > 30 µM (inactive) | > 30 µM (inactive) | > 30 µM (inactive) | > 30 µM (inactive) | > 30 µM (inactive) | 1.88 µM (active) | 6.15 | 6.03
COc1cc2ncnc3c2cc1OCCCCCN(C)Cc1ccc(Br)cc1N3 [JNJ-26483327] | > 30 µM (inactive) | > 30 µM (inactive) | > 30 µM (inactive) | > 30 µM (inactive) | > 30 µM (inactive) | > 30 µM (inactive) | > 30 µM (inactive) | > 30 µM (inactive) | > 30 µM (inactive) | > 30 µM (inactive) | > 30 µM (inactive) | > 30 µM (inactive) | > 30 µM (inactive) | > 30 µM (inactive) | – | –
CCc1cc2c(cc1N1CCC(N3CCOCC3)CC1)C(C)(C)c1[nH]c3cc(C#N)ccc3c1C2=O [ALECTINIB] | > 30 µM (inactive) | > 30 µM (inactive) | > 30 µM (inactive) | > 30 µM (inactive) | > 30 µM (inactive) | > 30 µM (inactive) | > 30 µM (inactive) | > 30 µM (inactive) | > 30 µM (inactive) | > 30 µM (inactive) | > 30 µM (inactive) | > 30 µM (inactive) | > 30 µM (inactive) | > 30 µM (inactive) | – | –
CNC(=O)c1cccc(-c2ccc3c(N4CCOC[C@@H]4C)nc(N4CCOC[C@@H]4C)nc3n2)c1 [VISTUSERTIB] | > 30 µM (inactive) | > 30 µM (inactive) | > 30 µM (inactive) | > 30 µM (inactive) | > 30 µM (inactive) | > 30 µM (inactive) | > 30 µM (inactive) | > 30 µM (inactive) | > 30 µM (inactive) | > 30 µM (inactive) | > 30 µM (inactive) | > 30 µM (inactive) | > 30 µM (inactive) | > 30 µM (inactive) | – | –
Cn1c(=O)c(F)c(Nc2ccc(I)cc2F)c2c(=O)n(C[C@@H](O)CO)cnc21 [TAK-733] | > 30 µM (inactive) | > 30 µM (inactive) | > 30 µM (inactive) | > 30 µM (inactive) | > 30 µM (inactive) | > 30 µM (inactive) | > 30 µM (inactive) | > 30 µM (inactive) | > 30 µM (inactive) | > 30 µM (inactive) | > 30 µM (inactive) | > 30 µM (inactive) | > 30 µM (inactive) | > 30 µM (inactive) | – | –
CC[C@@](C)(Nc1ccnc(-c2c[nH]c3ncccc23)n1)C(=O)NCC(F)(F)F [DECERNOTINIB] | > 30 µM (inactive) | > 30 µM (inactive) | > 30 µM (inactive) | > 30 µM (inactive) | > 30 µM (inactive) | > 30 µM (inactive) | > 30 µM (inactive) | > 30 µM (inactive) | > 30 µM (inactive) | > 30 µM (inactive) | > 30 µM (inactive) | 49.8 µM (active) | > 30 µM (inactive) | > 30 µM (inactive) | – | –
O=C(NOC[C@H](O)CO)c1ccc(F)c(F)c1Nc1ccc(I)cc1F [MIRDAMETINIB] | > 30 µM (inactive) | > 30 µM (inactive) | > 30 µM (inactive) | > 30 µM (inactive) | > 30 µM (inactive) | > 30 µM (inactive) | > 30 µM (inactive) | > 30 µM (inactive) | > 30 µM (inactive) | > 30 µM (inactive) | > 30 µM (inactive) | > 30 µM (inactive) | > 30 µM (inactive) | > 30 µM (inactive) | – | –
CC(C)(O)CC(=O)NCCn1ccc2ncnc(Nc3ccc(Oc4cccc(C(F)(F)F)c4)c(Cl)c3)c21 [TAK-285] | > 30 µM (inactive) | > 30 µM (inactive) | > 30 µM (inactive) | > 30 µM (inactive) | > 30 µM (inactive) | > 30 µM (inactive) | > 30 µM (inactive) | > 30 µM (inactive) | > 30 µM (inactive) | > 30 µM (inactive) | > 30 µM (inactive) | > 30 µM (inactive) | > 30 µM (inactive) | > 30 µM (inactive) | – | –
Cc1cc(C(=O)Nc2cc(Oc3ccc4nc(NC(=O)C5CC5)cn4n3)ccc2C)n(C)n1 [TAK-593] | > 30 µM (inactive) | > 30 µM (inactive) | > 30 µM (inactive) | > 30 µM (inactive) | > 30 µM (inactive) | > 30 µM (inactive) | > 30 µM (inactive) | > 30 µM (inactive) | > 30 µM (inactive) | > 30 µM (inactive) | > 30 µM (inactive) | > 30 µM (inactive) | > 30 µM (inactive) | > 30 µM (inactive) | – | –
COc1cc(Nc2ncc(F)c(Nc3ccc4c(n3)N(COP(=O)(O)O)C(=O)C(C)(C)O4)n2)cc(OC)c1OC [FOSTAMATINIB] | > 30 µM (inactive) | > 30 µM (inactive) | > 30 µM (inactive) | > 30 µM (inactive) | > 30 µM (inactive) | > 30 µM (inactive) | > 30 µM (inactive) | > 30 µM (inactive) | > 30 µM (inactive) | > 30 µM (inactive) | > 30 µM (inactive) | > 30 µM (inactive) | > 30 µM (inactive) | > 30 µM (inactive) | – | –
C[C@@H]1COC(Nc2ccc3ncnc(Nc4ccc(OCc5nccs5)c(Cl)c4)c3c2)=N1 [VARLITINIB] | > 30 µM (inactive) | > 30 µM (inactive) | > 30 µM (inactive) | > 30 µM (inactive) | > 30 µM (inactive) | > 30 µM (inactive) | > 30 µM (inactive) | > 30 µM (inactive) | > 30 µM (inactive) | > 30 µM (inactive) | > 30 µM (inactive) | > 30 µM (inactive) | > 30 µM (inactive) | > 30 µM (inactive) | – | –

— ChEMBL document CHEMBL3991601, “The target landscape of clinical kinase drugs” (Science, 2017)
